# Measurements reported in patent US20070128217A1 (priority 2003, published 2007).
# Assays:
# [1] = system: antibodies in sera from SARS patients (sera 1a, 1b, 2, 6, 37, 62, London, SARS-yellow, SARS-green); format: binding, human; set-up: Binding of serum 6 to linear peptides of protein X1 of SARS-CoV Urbani / Binding of serum 37 to linear peptides of protein X1 of SARS-CoV Urbani / Binding of serum 6 to looped/cyclic peptide (PEPSCAN-ELISA) / Binding of serum 37 to looped/cyclic peptide (PEPSCAN-ELISA) / Binding of serum 37 to looped/cyclic peptides of protein X1 of SARS-CoV Urbani / Binding of serum 6 to linear peptides of protein X2 / Binding of serum 37 to linear peptides of protein X2 / Binding of serum 37 to looped/cyclic peptides of protein X2 of SARS-CoV Urbani / Binding of serum 6 to linear peptides of protein M of SARS-CoV Urbani / Binding of serum 37 to linear peptides of protein M of SARS-CoV Urbani / Binding of serum 6 to looped/cyclic peptides of protein M of SARS-CoV Urbani / Binding of serum 37 to looped/cyclic peptides of protein M of SARS-CoV Urbani / Binding of serum 6 to linear peptides of protein X3 of SARS-CoV Urbani / Binding of serum 37 to linear peptides of protein X3 of SARS-CoV Urbani / Binding of serum 37 to looped/cyclic peptides of protein X3 of SARS-CoV Urbani / Binding of serum 6 to linear peptides of protein X4 of SARS-CoV Urbani / Binding of serum 37 to linear peptides of protein X4 of SARS-CoV Urbani / Binding of serum 37 to looped/cyclic peptides of protein X4 of SARS-CoV Urbani / Binding of serum 6 to linear peptides of protein X5 of SARS-CoV Urbani / Binding of serum 37 to linear peptides of protein X5 of SARS-CoV Urbani / Binding of serum 37 to looped/cyclic peptides of protein X5 of SARS-CoV Urbani / Binding of serum 6 to linear peptides of protein N of SARS-CoV Urbani / Binding of serum 37 to linear peptides of protein N of SARS-CoV Urbani / Binding of serum 6 to linear peptide (PEPSCAN-ELISA) / Binding of serum 1a to looped/cyclic peptides of protein N of SARS-CoV Urbani / Binding of serum 1b to looped/cyclic peptides of protein N of SARS-CoV Urbani / Binding of serum 2 to looped/cyclic peptides of protein N of SARS-CoV Urbani / Binding of serum 6 to looped/cyclic peptides of protein N of SARS-CoV Urbani / Binding of serum 37 to looped/cyclic peptides of protein N of SARS-CoV Urbani / Binding of serum 62 to looped/cyclic peptides of protein N of SARS-CoV Urbani / Binding of serum London to looped/cyclic peptides of protein N of SARS-CoV Urbani / Binding of serum SARS-green to looped/cyclic peptides of protein N of SARS-CoV Urbani: unit not given here
# [2] = system: control sera (pooled serum of ten healthy LUMC hospital workers; commercial negative donor pooled serum from the Dutch bloodbank); format: binding, human; set-up: Binding of Control serum LUMC to linear peptides / Binding of Control serum Blood-bank to linear peptides / Binding of Control serum LUMC to looped peptides / Binding of Control Serum Blood-Bank to Looped peptides / Binding of Control serum LUMC to linear peptides of the protein M of SARS-CoV Urbani / Binding of Control serum Blood-bank to linear peptides of the protein M of SARS-CoV Urbani / Binding of Control serum LUMC to looped peptides of the protein M of SARS-CoV Urbani / Binding of Control Serum Blood-Bank to Looped peptides of the protein M of SARS-CoV Urbani: unit not given here
# [3] = system: rabbit serum obtained by immunizing a rabbit with the SARS-CoV strain Frankfurt 1; format: binding; set-up: Binding of a rabbit serum to linear peptides / Binding of a rabbit serum to looped peptides / Rabbit serum linear peptides / Rabbit serum looped peptides / Binding of a rabbit serum to linear peptides of protein N of SARS-CoV Urbani (Rabbit serum linear peptides) / Binding of a rabbit serum to looped/cyclic peptides of protein N of SARS-CoV Urbani (Rabbit serum looped peptides): unit not given here
# [4] = system: recombinant human anti-SARS-CoV antibody 03-018; format: binding; set-up: Binding of antibody 03-018 to linear peptides of the N protein of SARS-CoV Urbani / Binding of antibody 03-018 to looped/cyclic peptides of the N protein of SARS-CoV Urbani: unit not given here
# [5] = target: SARS-CoV preparation (Frankfurt 1 strain) (SARS-CoV strain Frankfurt 1)
Molecule,Binding of serum 1a to linear peptides of protein N of SARS-CoV Urbani [1],Binding of serum 1a to looped/cyclic peptides of protein N of SARS-CoV Urbani [1],Binding of serum 1b to linear peptides of protein N of SARS-CoV Urbani [1],Binding of serum 1b to looped/cyclic peptides of protein N of SARS-CoV Urbani [1],Binding of serum 2 to linear peptides of protein N of SARS-CoV Urbani [1],Binding of serum 2 to looped/cyclic peptides of protein N of SARS-CoV Urbani [1],Binding of serum 6 to linear peptides of protein N of SARS-CoV Urbani [1],Binding of serum 6 to looped/cyclic peptides of protein N of SARS-CoV Urbani [1],Binding of serum 37 to linear peptides of protein N of SARS-CoV Urbani [1],Binding of serum 37 to looped/cyclic peptides of protein N of SARS-CoV Urbani [1],Binding of serum 62 to linear peptides of protein N of SARS-CoV Urbani [1],Binding of serum 62 to looped/cyclic peptides of protein N of SARS-CoV Urbani [1],Binding of serum London to linear peptides of protein N of SARS-CoV Urbani [1],Binding of serum London to looped/cyclic peptides of protein N of SARS-CoV Urbani [1],Binding of serum SARS-green to linear peptides of protein N of SARS-CoV Urbani [1],Binding of serum SARS-green to looped/cyclic peptides of protein N of SARS-CoV Urbani [1],Binding of serum SARS-yellow to linear peptides of protein N of SARS-CoV Urbani [1],Binding of serum SARS-yellow to looped/cyclic peptides of protein N of SARS-CoV Urbani [1],Binding of Control Serum Blood-Bank to Looped peptides [2],Binding of Control serum Blood-bank to linear peptides [2],also measured
YYLGTGPEASLPYGA,0.3,0.4,0.2,0.4,0.2,0.4,0.2,0.3,0.7,0.9,0.7,0.7,0.4,0.5,0.2,0.5,0.8,0.7,0.8,0.7,Binding of Control serum LUMC to linear peptides [2]: 0.7; Binding of Control serum LUMC to looped peptides [2]: 0.8; Binding of a rabbit serum to linear peptides of protein N of SARS-CoV Urbani (Rabbit serum linear peptides) [3]: 0.1; Binding of a rabbit serum to looped/cyclic peptides of protein N of SARS-CoV Urbani (Rabbit serum looped peptides) [3]: 0.5; Binding of antibody 03-018 to linear peptides of the N protein of SARS-CoV Urbani [4]: 0.1; Binding of antibody 03-018 to looped/cyclic peptides of the N protein of SARS-CoV Urbani [4]: 0.2
YYRRATRRVRGGDGK,0.3,0.2,0.1,0.1,0.3,0.2,0.3,0.1,0.7,0.4,0.6,0.2,0.5,0.2,0.3,0.0,0.5,0.1,0.3,0.6,Binding of Control serum LUMC to linear peptides [2]: 0.6; Binding of Control serum LUMC to looped peptides [2]: 0.2; Binding of a rabbit serum to linear peptides of protein N of SARS-CoV Urbani (Rabbit serum linear peptides) [3]: 0.2; Binding of a rabbit serum to looped/cyclic peptides of protein N of SARS-CoV Urbani (Rabbit serum looped peptides) [3]: 0.0; Binding of antibody 03-018 to linear peptides of the N protein of SARS-CoV Urbani [4]: 0.1; Binding of antibody 03-018 to looped/cyclic peptides of the N protein of SARS-CoV Urbani [4]: 0.2
SC03-012 (scFv) scFv: AMAQVQLVQSGAEVKKPGASVKVSCKASGYTFTSYGISWVRQAPGQGLEWMGWISAYNGNTNYAQKLQGRVTMTTDTSTSTAYMELSSLRSDDTAVYYCARMFRKSSFDSWGQGTLVTVSRGGGGSGGGGSGGGGSSELTQDPAVSVALGQTVRITCQGDSLRSYYASWYQQKPGQAPVLVIYGKNNRPSGIPDRFSGSSSGNTASLTITGAQAEDEADYYCNSRDSSGNHVVFGGGTKLTVLGAAA,,,,,,,,,,,,,,,,,,,,,OD492nm [5]: 0.495 OD492nm
